Data taken from patent US20120264928A1, “THERAPEUTIC PHARMACEUTICAL AGENT FOR DISEASES ASSOCIATED WITH DECREASE IN FUNCTION OF GNE PROTEIN, FOOD COMPOSITION, AND FOOD ADDITIVE” (JAPAN HEALTH SCIENCES FOUNDATION, priority 2009, published 2012).

Key:
Type in all cases: in vivo
DMRV model mice [1] = experiment: Survival rate of treated DMRV model mice; conditions: vs placebo group
Experimental: DMRV model mice were GNE^(−/−)hGNED176V-Tg described in Japanese Unexamined Patent Application Publication No. 2007-312641. Healthy litters having no GNE gene mutation were used as controls. The mice in the present example freely take water and feed and ingest 14 mg/kg body weight/day of N-acetylneuraminic acid compound on average.
(§1) 20 mg/kg body weight/day of ManNAc (N=6), NeuAc (N=5), or sialyllactose (N=7) dissolved in drinking water was administered to the DMRV model mice between 11- to 15-week old and 56- to 58-week old for 43 to 45 weeks. 40 mg (N=5) or 400 mg/kg body weight/day (N=4) of Ac4ManNAc dissolved in drinking water was administered to the DMRV model mice of the same ages for 43 to 47 weeks. Drinking water free of the pharmaceutical agents was supplied to mice in a placebo group.
(§2) During the administration of the pharmaceutical agent, the measurement of the body weight, the determination of the survival rate, blood collection (0, 25, and 49 days after the start of administration, and thereafter at intervals of 28 days), and a hanging test (0 and 49 days after the start of administration, and thereafter at intervals of 56 days) were performed at regular intervals. Survivors after the administration (ManNAc-treated group: N=5, NeuAc-treated group: N=5, sialyllactose group: N=6) were subjected to a treadmill test. A muscle tissue was then excised and was subjected to a muscle contraction test, the measurement of the amount of NeuAc, and pathological observation.

DMRV model mice [2] = experiment: Hanging test; conditions: 20 mg/kg body weight/day in drinking water; vs placebo group
Experimental: as §1, §2
A wire net having a 6-mm lattice pattern made of wires having a diameter of approximately 0.5 mm was placed on a tube having a height of 50 cm. A mouse was made to hang on the wire net, and the time elapsed before the mouse fell down was measured. The time was measured three times for each mouse.

DMRV model mice [3] = experiment: Treadmill test, motor ability test; conditions: vs placebo group
Experimental: as §1, §2
In order to familiarize a mouse with the apparatus, training was started one week prior to testing. In this period, the mouse was made to run on a slope of 7 degrees at a velocity in the range of 5 to 15 m/min for 30 minutes every day for 7 days. As a motor ability test, the velocity was increased by 10 m/min per minute from the initial velocity of 20 m/min. The accumulated running distance up to the point where the mouse could not run anymore was measured. As an endurance test, a mouse was made to run on a slope of 7 degrees at a velocity of 20 m/min for 60 minutes. The mouse was then made to run for another 3 minutes, during which the times of the electrical stimulation given to the mouse by a stimulation grid disposed at the end of the running lane were measured.

DMRV model mice [4] = experiment: Pathological observation of muscle tissue
Experimental: as §1, §2
The gastrocnemius muscle used in the muscle contraction test was frozen in isopentane cooled by liquid nitrogen, and a frozen section having a thickness of 6 μm was prepared with a cryostat. The section was placed on a slide glass. Hematoxylin-eosin (H-E) staining, acid phosphatase activity staining (see Malicdan et al., Method. Enzymol., 453, 379-396, 2009), or Gomori trichrome staining (see Malicdan et al., Method. Enzymol., 453, 379-396, 2009) were performed on adjacent sections. These sections were observed under an optical microscope. A frozen section having a thickness of 10 μm prepared in the same manner as described above was fixed with 4% paraformaldehyde, was stained with congo red, and was observed under a fluorescence microscope.
A frozen section having a thickness of 6 μm prepared in the same manner as described above was fixed with acetone and was blocked with a blocking solution (PBS containing 5% goat normal sera or 2% casein). The section was incubated with an anti-autophagy marker protein LC3 rabbit polyclonal antibody (NB100-2220, Novus Biologicals, 100 times dilution), an anti-β-amyloid rabbit polyclonal antibody (Aβ1-40, AB5074P, Chemicon, 100 times dilution), an anti-β-amyloid rabbit polyclonal antibody (Aβ1-42, AB5078P, Chemicon, 100 times dilution), an anti-phosphorylated tau mouse monoclonal antibody (90206, Innogenetics, 100 times dilution), an anti-amyloid mouse monoclonal antibody (6E10, Covance, 400 times dilution), an anti-p62 protein rabbit polyclonal antibody (PW9860, Biomol, 500 times dilution), or an anti-lysosome-associated membrane protein 2 (Lamp 2) rabbit polyclonal antibody (ABL-93, obtained from Developmental Studies Hybridoma Bank at the University of Iowa, 100 times dilution) at room temperature for one hour. If necessary, Alexa Fluor 488 or 568 labeled anti-rabbit/mouse IgG(H+L) (Molecular Probes) was used as a secondary antibody. Immunostained preparations of these sections were observed under a fluorescence microscope. The congo red staining and the LC3 labeling were performed on adjacent sections.
It is known that rimmed vacuoles found in muscle tissues of a patient suffering from myopathy are positive for acid phosphatase. […] Tau protein is phosphorylated with amyloid β-protein. In myopathy caused by a mutation of the GNE gene, it is known that lysosomal vesicles that contain localized Lamp 2 protein are accumulated. It is also known that p62 protein recognizes polyubiquitin protein and directly binds to LC3 to induce autophagy in a portion that contains accumulated polyubiquitinated protein. In a muscle tissue affected by myopathy, p62 protein is colocalized with amyloid.

[5] = 20 mg/kg body weight/day in drinking water, 43 to 45 weeks
[6] = 20 mg/kg body weight/day in drinking water
[7] = 20 mg/kg body weight/day in drinking water, vs placebo group

| Structure (SMILES) | survival rate (DMRV model mice [1]; [5]) | hanging time (DMRV model mice [2]) | accumulated running distance (DMRV model mice [3]; [6]) | acid phosphatase activity staining (DMRV model mice [4]; [6]) | congo red staining (amyloid) (DMRV model mice [4]; [6]) | labeling with the anti-phosphorylated tau antibody (DMRV model mice [4]; [6]) | rimmed vacuoles and muscle cell atrophy (H-E staining) (DMRV model mice [4]; [6]) | labeling with the anti-amyloid antibodies (LC3, Aβ1-40, and Aβ1-42) (DMRV model mice [4]; [7]) | survival rate (DMRV model mice [1]; 40 or 400 mg/kg body weight/day in drinking water, 43 to 47 weeks) | accumulated running distance (DMRV model mice [3]; 400 mg/kg) | Aβ1-42 labeling (DMRV model mice [4]; 40 mg/kg) | Lamp 2 staining (DMRV model mice [4]; 40 mg/kg) | acid phosphatase activity staining (DMRV model mice [4]; 40 mg/kg) | p62 protein labeling (DMRV model mice [4]; 40 mg/kg) | frequencies of rimmed vacuoles and muscular atrophy (DMRV model mice [4]; 40 mg/kg, vs placebo group) | Aβ1-42 labeling (DMRV model mice [4]; 400 mg/kg) | Lamp 2 staining (DMRV model mice [4]; 400 mg/kg) | acid phosphatase activity staining (DMRV model mice [4]; 400 mg/kg) | p62 protein labeling (DMRV model mice [4]; 400 mg/kg) | rimmed vacuoles and muscle cell atrophy (DMRV model mice [4]; 400 mg/kg) |
| --- | --- | --- | --- | --- | --- | --- | --- | --- | --- | --- | --- | --- | --- | --- | --- | --- | --- | --- | --- | --- |
| CC(=O)N[C@H]1[C@H]([C@H](O)[C@H](O)CO)O[C@@](O[C@H]2[C@@H](O)[C@@H](CO)O[C@@H](O[C@H]3[C@H](O)[C@@H](O)C(O)O[C@@H]3CO)[C@@H]2O)(C(=O)O)C[C@@H]1O (stereo partly drawn) [sialyllactose, NeuAcα2-3Galβ1-4Glc] | significantly higher | longer | significantly higher | negative | only the placebo group was fluorescently labeled | Only the placebo group was also labeled | no rimmed vacuole or muscle cell atrophy | markedly reduced | – | – | – | – | – | – | – | – | – | – | – | – |
| CC(=O)N[C@@H]1C(O)O[C@H](CO)[C@@H](O)[C@@H]1O (stereo partly drawn) [ManNAc, N-acetylmannosamine, reference compound] | significantly higher | longer | significantly higher | negative | only the placebo group was fluorescently labeled | Only the placebo group was also labeled | no rimmed vacuole or muscle cell atrophy | markedly reduced | – | – | – | – | – | – | – | – | – | – | – | – |
| CC(=O)N[C@H]1[C@H]([C@H](O)[C@H](O)CO)OC(O)(C(=O)O)C[C@@H]1O (stereo partly drawn) [NeuAc, N-acetylneuraminic acid] | significantly higher | longer | significantly higher | negative | only the placebo group was fluorescently labeled | Only the placebo group was also labeled | no rimmed vacuole or muscle cell atrophy | markedly reduced | – | – | – | – | – | – | – | – | – | – | – | – |
| CC(=O)N[C@@H]1C(OC(C)=O)O[C@H](COC(C)=O)[C@@H](OC(C)=O)[C@@H]1OC(C)=O (stereo partly drawn) [Ac4ManNAc, Tetra-O-acetyl-N-acetylmannosamine] | – | – | – | – | – | – | – | – | higher | significantly higher | negative | very slightly stained | dispersed sites that were positive | negative | much lower | negative | negative | negative | negative | no rimmed vacuole or muscle cell atrophy |
